Test results reported in patent publication US20240108634A1, “COMPOSITIONS AND METHODS FOR INHIBITING YAP” (The United States Government as represented by the …, priority 2021, published 2024).

Experiment: Brain and plasma concentrations by HPLC after IV administration
Type: in vivo, C57/BL6 mice
Conditions: single IV administration
Description: FIGS. 9A-B show GEMM survival and brain/blood plasma concentrations following treatment with NSC682769. […] C57/BL6 mice were administered NSC682769 IV and mean brain and plasma concentrations were determined via HPLC analyses. (n=5).
Protein and mRNA analyses, immunoprecipitation, in vitro bead-coupled inhibitor binding assays and HPLC analyses. Western blot analyses were performed as previously described (Artinian N, et al. (2015) J Biol Chem 290: 19387-19401). Briefly, cells were lysed in RIPA (lysis) buffer containing protease inhibitor cocktail and phosSTOP™ phosphatase inhibitor cocktail (Roche) and extracts resolved by SDS-PAGE. Proteins were transferred to PVDF membranes and incubated with the indicated antibodies. Antigen-antibody complexes were detected using appropriate horseradish peroxidase-conjugated secondary antibodies (GE Healthcare) and enhanced chemiluminescence (Amersham ECL Prime). […] For quantitative RT-PCR, extraction of RNA was performed using Trizol® (Life Technologies). Total RNA was then quantified and integrity assessed using an Agilent 2100 Bioanalyzer (Agilent Technology). […] SYBR® Green quantitative PCR (Millipore Sigma) was performed in triplicate in 96-well optical plates on an ABI Prism 7000 Sequence Detection System (Life Technologies) according to the manufacturer's instructions. […]

What does the source list for `COc1ccc(-c2cc(-c3ccccc3)nc3c2CC(=O)Nc2ccccc2-3)cc1OC` [NSC682769]?
Cb/Cp ratios (brain/plasma): consistent with BBB penetrance; Peak value in brain tissue (at 5 min post-administration): 6.22 µg/g
